Assay results taken from patent US20230285336A1, “COMPOSITION FOR PREVENTION AND TREATMENT OF SKIN DISEASES CAUSED BY GENETIC MUTATION COMPRISING FERULIC ACID AND ANALOGS THEREOF” (UNIVERSITY-INDUSTRY COOPERATION GROUP OF KYUNG HEE …, priority 2019, published 2023).

Legend:
keratin 6A protein [1] = test: Keratin 6A protein expression in cultured skin tissue of mouse, immunofluorescence staining; format: cell-based; conditions: cultured 12 days, compared to control group not treated (FIG. 1)
Protocol: (§1) In order to confirm whether ferulic acid induces the expression of keratin 6A protein from the skin tissue of a mouse, the cross-sections of the cultured skin tissue and the skin tissue of an adult mouse were treated with ferulic acid to confirm the expression level of keratin 6A protein using Western blotting and immunofluorescence staining.
First, after peeling off the skin of a mouse within one day of age, a circular skin piece was spread on a 24-well plate using a 4 mm punch (Kai industries). The cell medium was carefully added with the growth factor Cnt-57 according to the method of CELLnTEC, and the medium was replaced once every two days. […]
Specifically, for cell fluorescence staining, 500 μl of a 4% paraformaldehyde solution (solvent, PBS) was reacted for 20 minutes, and then washed three times with a washing buffer (0.1 M, PBS). […]
(§2) For tissue fluorescence staining, after removing paraffin from the paraffin-coated skin tissue, the tissue was washed three times with a washing buffer (0.1 M, PBS), and reacted with a solution containing hydrogen peroxide (0.1 M PBS, 0.2% H2O2) for 30 minutes to eliminate the activity of endogenous peroxidase. […] Then, after washing three times with a washing buffer (0.1 M, PBS), fluorescence photos were taken using a FluoView FV1000 confocal microscope (Olympus, Tokyo, Japan).

keratin 6A protein [2] = test: Keratin 6A protein expression in skin tissue of an adult mouse, Western blotting and immunofluorescence staining; format: in vivo
Protocol: as §1
as §2, with “Japan). […]” for “Japan).”
(§3) First, in order to confirm the expression levels of two proteins, keratin 6A and beta-catenin, skin tissue was collected and protein was extracted using a dissolution buffer (pH 7.4, 50 mM, Tris-HCL, 150 mM NaCL, 1 mM EDTA, 1 mM EGTA, 10 mg/mL aprotinin, 10 mg/mL leupeptin, 5 mM phenylmethylsulfonyl fluoride and 1 mM DTT). The extracted protein was quantified using a Bradford reaction solution (Bio-Rad, CA, USA), and 20 μL of the protein was electrophoresed by 10% SDS-PAGE, and transferred to a nitrocellulose membrane (Merck, MA, USA). […]

keratin 6A protein [3] = test: Keratin 6A protein expression in keratin 5 knock-down kera308 cells, Western blotting; format: cell-based, mouse; conditions: 100 μM, 24 hours, compared to not treated (FIG. 6)
Protocol: as §3, with “USA). The membrane was reacted with primary antibodies keratin 6A (rabbit anti-keratin 6A, 1:200, Covans, NJ, USA) and β-actin (anti-β-actin extracted from mouse, 1:1000, Santa Cruz, TX, USA), and washed three times with TBS-T (Tris Buffered Saline with Tween 20) for 10 minutes, and then the membrane was reacted with a secondary antibody (Santa Cruz, TX, USA) for 1 hour.” for “USA).”
The cells were precultured for 15 hours after attaching 1×10^6 cells/well of kera308 cells, and cultured for 24 hours after being treated with 100 μM ferulic acid. The harvested cells were centrifuged at 13,000 rpm for 5 minutes to take the supernatant, and then the protein concentration was quantified using Bradford assay (BioRed). […]

beta-catenin protein [4] = test: Beta-catenin protein expression in skin epidermal stem cells, immunofluorescence staining and Western blotting; format: cell-based, mouse; conditions: skin epidermal stem cells (FIGS. 7 and 8)
Protocol: (§4) In order to confirm whether ferulic acid regulates beta-catenin protein, an experiment was carried out to confirm the expression levels of beta-catenin protein and c-myc protein in epidermal cells and dermal cells of the skin.
(§5) The expression levels of beta-catenin protein and c-myc protein after treating skin epidermal stem cells with ferulic acid, and the expression levels of beta-catenin protein and c-myc protein after treating skin epidermal stem cells with ferulic acid together with LiCl, which is a beta-catenin protein inducer, were confirmed using immunofluorescence staining and Western blotting.
(§6) First, for immunofluorescence staining, the cell fluorescence staining method of Example 1 was referred to. At this time, beta-catenin (anti-beta-catenin extracted from mouse, 1:200, Invitrogen, CA, USA) was used instead of keratin 6A as a primary antibody, and Alexa 647 (anti-mouse IgG derived from goat, 1:1000, Invitrogen, CA, USA) was used instead of Alexa 488 (anti-rabbit IgG extracted from donkey, 1:1000, Invitrogen, CA, USA) as a secondary antibody.
(§7) In addition, for Western blotting, the Western blotting method of Example 1 was referred to. In this case, beta-catenin (anti-beta catenin extracted from mouse, 1:200, Invitrogen, CA, USA) was used instead of keratin 6A as a primary antibody.

c-myc protein [5] = test: c-myc protein expression in skin epidermal stem cells; format: cell-based, mouse; conditions: skin epidermal stem cells (FIGS. 7 and 8)
Protocol: as §4, §5, §6, §7

beta-catenin protein [6] = test: Beta-catenin protein expression in skin dermal stem cells, immunofluorescence staining and Western blotting; format: cell-based, mouse; conditions: skin dermal stem cells (FIGS. 9 and 10)
Protocol: as §4
as §5, with “dermal” for “epidermal”
as §6, §7

c-myc protein [7] = test: c-myc protein expression in skin dermal stem cells; format: cell-based, mouse; conditions: skin dermal stem cells (FIGS. 9 and 10)
Protocol: as §4
as §5, with “dermal” for “epidermal”
as §6, §7

Q: Which “expression level of keratin 6A protein” value (keratin 6A protein [1]) does the source give for `COc1cc(/C=C/C(=O)O)ccc1O` [ferulic acid] here?
A: The value was “increased”.

Q: What about the “expression level of keratin 6A protein” value (keratin 6A protein [2]; skin tissue of an adult mouse treated for 3 days and 7 days (FIGS. 2 and 3)) of the same molecule?
A: The value was “increased significantly”.

Q: And the “expression level of keratin 6A protein” value (keratin 6A protein [2]; skin tissue of an adult mouse, 3 days after treating (FIGS. 2 and 3))?
A: Its value is “particularly high”.

Q: And the “expression level of keratin 6A protein” value (keratin 6A protein [3])?
A: Its value is “increased significantly”.

Q: What about the “expression of beta-catenin protein” value (beta-catenin protein [4]) of the same molecule?
A: The value was “suppressed”.

Q: What about the “expression of c-myc protein” value (c-myc protein [5]) of the same molecule?
A: Its value is “suppressed”.

Q: And the “amount of beta-catenin protein” value (beta-catenin protein [6])?
A: The value was “increased”.

Q: And the “amount of c-myc protein” value (c-myc protein [7])?
A: The value was “increased”.
